Experimental data from the NIST ThermoML archive (doi:10.1021/acs.jced.8b00560).
Numbers after ± are expanded uncertainties.

Conditions: Crystal; DSC

NC(=O)c1cccnc1 [3-pyridinecarboxamide]
Triple point temperature: 398.5 ± 3.1 K

O=C(O)c1ccccc1 [benzoic acid]
Triple point temperature: 392.5 ± 3.1 K
